B1: SolECE-1: recombinant soluble form of ECE-1: extracellular domain of human ECE-1a with c-myc and 6×His tags, secreted by CHO cells (protein, UniProt P42892 90-770, looked up)
extracellular domain: QYQTRSPSVCLSEACVSVTSSILSSMDPTVDPCHDFFSYACGGWIKANPVPDGHSRWGTFSNLWEHNQAIIKHLLENSTASVSEAERKAQVYYRACMNETRIEELRAKPLMELIERLGGWNITGPWAKDNFQDTLQVVTAHYRTSPFFSVYVSADSKNSNSNVIQVDQSGLGLPSRDYYLNKTENEKVLTGYLNYMVQLGKLLGGGDEEAIRPQMQQILDFETALANITIPQEKRRDEELIYHKVTAAELQTLAPAINWLPFLNTIFYPVEINESEPIVVYDKEYLEQISTLINTTDRCLLNNYMIWNLVRKTSSFLDQRFQDADEKFMEVMYGTKKTCLPRWKFCVSDTENNLGFALGPMFVKATFAEDSKSIATEIILEIKKAFEESLSTLKWMDEETRKSAKEKADAIYNMIGYPNFIMDPKELDKVFNDYTAVPDLYFENAMRFFNFSWRVTADQLRKAPNRDQWSMTPPMVNAYYSPTKNEIVFPAGILQAPFYTRSSPKALNFGGIGVVVGHELTHAFDDQGREYDKDGNLRPWWKNSSVEAFKRQTECMVEQYSNYSVNGEPVNGRHTLGENIADNGGLKAAYRAYQNWVKKNGAEHSLPTLGLTNNQLFFLGFAQVWCSVRTPESSHEGLITDPHSPSRFRVIGSLSNSKEFSEHFRCPPGSPMNPPHKCEVW
modifications: extracellular domain c-myc and 6xHis tags
notes: recombinant soluble form of ECE-1: extracellular domain of human ECE-1a with c-myc and 6×His tags, secreted by CHO cells

Columns and labels:
H4 neuroglioma cells = experiment: Extracellular Aβ after treatment of H4 cells with metalloprotease inhibitors; format: cell-based, human; conditions: H4 neuroglioma cells; thiorphan or captopril at concentrations greater than 1000-times the reported IC50 for the target enzymes
Method: Human and guinea pig Aβ40 or Aβ42 was measured in plasma by sandwich ELISA as previously described (Suzuki et al., 1994, Science, 264:1336-1340) using the BAN-50/BA-27 or BAN-50/BC-05 antibody systems, respectively (Takeda; Japan). Hamster Aβ40- or Aβ42-derived from CHO cells was measured using the BNT-77/BA-27 or BNT-77/BC-05 antibody systems, respectively. Aβ concentration in samples was determined by comparison to synthetic Aβ40 or Aβ42 standards (Bachem, Switzerland). Data was obtained from triplicate wells.
In particular, the sandwich ELISA used herein was performed as follows: 96-well microtiter plates were coated overnight at 4° C. with 100 μl of a 5 μg/ml dilution of primary antibody in sodium carbonate coating buffer (SCCB; 0.1 M Na2CO3, pH 9.6). Plates were blocked overnight at 4° C. with 300 μl of BLOCKAGE Solution (PBS+1.0% BLOCKAGE (Snow Brand Milk Products, Japan), 0.05% NaN3, pH 7.4). Samples for analysis and synthetic Aβ standards (Bachem, Switzerland) were diluted in buffer EC (0.02 M NaH2PO4, 0.002 M EDTA, 0.4 M NaCl, 0.2% BSA, 0.05% CHAPS, 0.04% BLOCKAGE, 0.05% NaN3, pH 7.0) and allowed to incubate on the plates overnight at 4° C. Plates were washed twice with PBS (8 mM Na2HPO4, 1.5 mM KH2PO4, 139 mM NaCl, 2.7 mM KCl, pH 7.4) and 100 μl of secondary antibody directly coupled to HRP (EZ-LINK™ Plus Activated Peroxidase kit (contents of kit: peroxidase, 5 M sodium cyanoborohydride solution (NaBH3CN), quenching buffer (3 M ethanolamine, pH 9.0), BupH™ phosphate buffered saline, Buph™ carbonate-bicarbonate buffer), according to manufacturers directions; Pierce Chemical Co., Rockford, Ill.) was allowed to bind either 4 hrs at room temperature or overnight at 4° C. Plates were then washed twice with PBS containing 0.05% Tween 20 followed by two additional washes in PBS. Detection was performed using TMB (3,3′,5,5′-tetramethyl-benzidine) as an HRP substrate according to the manufacturer's specifications (Kirkegaard & Perry Laboratories (KPL), Gaithersburg, Md.) and the reaction stopped by the addition of 100 μl of 1N H3PO4. Plates were read at 450 nm in a SpectraMax Plus spectrophotometer (Molecular Devices; Sunnyvale, Calif.) and analyzed by SOFTmax® PRO software. Aβ40 or Aβ42 were quantitated by comparison with the values obtained for each synthetic Aβ standard from the same plate.
Cells were passaged into 6-well plates one day prior to treatment and grown to confluence. […] After treatment, the culture medium was harvested, spun at 14,000 xg, and the supernatant analyzed for Aβ40 or Aβ42 using sandwich ELISA and for secreted APP using Western blot. […] Bound antibody was detected by incubation with the appropriate HRP-linked secondary antibody (Amersham, Uppsala, Sweden) using ECL™ Western blotting reagents (Amersham) followed by exposure to X-ray film. […]

Aβ in the brain = conditions: infusion into the brain of rats; deposition of Aβ42; previous report; cited from earlier work
synthetic Aβ40 or Aβ42 = experiment: Aβ degradation by SolECE-1, sandwich ELISA; format: biochemical; conditions: SolECE-1 approximately 0.2 μM; Aβ 0.01 μM; 24 hrs at 37° C., pH 6.5
Method: (§1) SolECE-1 (approximately 0.2 μM) was pre-incubated for 15 min at room temperature with the ECE inhibitors PD069185 (synthesized according to published methods (Ahn et al., 1998, Biochem. Biophys. Res. Comm., 243:184-190) by the Mayo Clinic Organic Chemistry Core Facility, Jacksonville, Fla.) or phosphoramidon (150 μM), or an equal volume of vehicle (DMSO or PBS, respectively) prior to incubation with synthetic Aβ40 or Aβ42 (0.01 μM) in 50 mM MES (pH 6.5) containing 0.01% C12E10, 1 mM PMSF, 100 μM leupeptin, and 20 μM pepstatin. As a control, Aβ was incubated with Ni-NTA purified proteins from non-transfected CHO cells, or in reaction buffer alone. Following incubation for 24 hrs at 37° C., the reactions were stopped by the addition of 5 mM EDTA. Aβ concentration was then analyzed using a highly specific sandwich ELISA that captures Aβ via binding of antibody BAN-50 to the N-terminus, and detects only full-length Aβ peptides ending at residue 40 (using antibody BA-27) or 42 (using antibody BC-05). Thus, Aβ that has been further hydrolyzed will not be detected using this assay. To further analyze the degradation of Aβ by SolECE1, the enzyme was incubated with ^3H labeled Aβ40 (0.56 μM, 2×10^4 dpm) as described above and resulting peptides were separated by reverse-phase chromatography.

3H-Aβ40 = experiment: Degradation of 3H labeled Aβ40 by SolECE-1, reverse-phase chromatography; format: biochemical; conditions: 3H-Aβ40 0.56 μM
Method: as §1

Molecule | extracellular Aβ accumulation (H4 neuroglioma cells) | amount of Aβ in the brain (Aβ in the brain) | loss of synthetic Aβ40 and Aβ42 detected by sandwich ELISA (synthetic Aβ40 or Aβ42) | effect on 3H-Aβ40 by reverse-phase chromatography (3H-Aβ40)
C[C@H](CS)C(=O)N1CCC[C@H]1C(=O)O [captopril] | failed to result in increased extracellular Aβ |  |  | 
O=C(O)CNC(=O)C(CS)Cc1ccccc1 (centres unmarked) [thiorphan] | failed to result in increased extracellular Aβ | significant increase |  | 
B1 |  |  | almost complete loss | loss of the full-length (i.e., unhydrolyzed) Aβ and the formation of at least 4 novel peaks

Reference: patent publication US6699681B2, “Endothelin converting enzymes and the amyloid β peptide” (Mayo Foundation for Medical Education and Research, priority 2000, dated 2004)
